Experimental data from ChEMBL document CHEMBL1221190, “Therapeutic intervention based on protein prenylation and associated modifications” (Nat Chem Biol, 2006).

What was measured:
[1] = Inhibition of GGTase1
[2] = Selectivity ratio of IC50 for farnesyltransferase to IC50 for GGTase1

- IC50 [1]: 8 nM
- Ratio IC50 [2]: 250
SMILES: CSCCc1c(-c2cccnc2)nn(-c2ccc(Cl)c(Cl)c2)c1OCCCC(=O)N[C@@H](Cc1ccccc1)C(N)=O
